Test results as given in US20240344241A1, “PROTEINACEOUS MOLECULES AND USES THEREFOR” (THE UNIVERSITY OF QUEENSLAND, priority 2021, published 2024).
Bridge positions count the residues as written; N and C are the ends. Peptide text beside a SMILES is read from it.

Tests used:
[1] = biological target: T1, Human β-FXIIa (Homo sapiens, UniProt P00748); test: FXIIa competitive inhibition assay, fluorescent substrate Boc-QGR-MCA; assay type: biochemical
T1 construct: Human β-FXIIa was obtained from Molecular Innovations, together with human FXa, human FXIa, human α-thrombin, and human plasma kallikrein; purchased Molecular Innovations; host or cells: purified from human plasma
T1 sequence (P00748 373-615 limits assumed, other chains not shown): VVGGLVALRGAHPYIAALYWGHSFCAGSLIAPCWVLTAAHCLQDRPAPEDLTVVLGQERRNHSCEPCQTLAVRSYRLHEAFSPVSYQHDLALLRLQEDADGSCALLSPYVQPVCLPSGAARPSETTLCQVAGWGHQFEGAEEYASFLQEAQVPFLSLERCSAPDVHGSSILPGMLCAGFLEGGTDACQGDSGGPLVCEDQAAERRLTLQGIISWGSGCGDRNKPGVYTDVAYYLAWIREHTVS
Source text: Cyclic [I7F]MCoFx1 (also referred to as cyclic MCoFx6) was synthesized using solid phase peptide synthesis ([[…]] [SEQ ID NO: 97]). For this inhibitor, Tyr33 was mutated back to serine as per the original mRNA display screen (FIG. 1). Cyclic MCoFx6 was screened using a competitive inhibition assay, with the substrate being changed from a colorimetric substrate (Ac-QRFR-pNA in the data of Tables 7 and 10) to a fluorescent substrate (Boc-QGR-MCA) to allow the assay to be run with a lower concentration of enzyme. The assay was performed as described for Examples 2 and 3, except that the FXIIa concentration was 0.5 nM and the substrate concentration was 50 μM (KM=187 μM).
The new variants were screened using competitive inhibition assays, with the substrate being changed from a colorimetric substrate (Ac-QRFR-pNA in the data of Tables 7 and 10) to a fluorescent substrate (Boc-QGR-MCA) to allow the assay to be run with a lower concentration of enzyme. Assays were performed as described for Examples 2 and 3, except that the FXIIa concentration was 0.5 nM and the substrate concentration was 50 μM (KM=187 μM). […] The effect of amino acid substitutions within loop 2 (Arg12, Arg13), loop 5 (Ala25, Arg27) or loop 6 (Asp34) on the activity of cyclic MCoFx7 against FXIIa was determined (refer to Table 14). […] Additionally, mutating Arg to Glu (reversing the side chain charge) only led to two-fold weaker activity. The adjacent residue Arg13 could also be mutated to Lys with no change in activity. Within loop 5, mutating Ala25 to Lys produced a slight gain in activity, whereas the Ala to Pro mutation led to a slight decrease in activity. Both mutations at Arg27 led to losses in activity in the order of two-fold (His) or 3.2-fold (Gly).
(§1) The activity of acyclic and cyclic MCoFx1-5 and analogues thereof was assessed in competitive inhibition assays, as previously described in Swedberg et al. (2016) J Med Chem, 59: 7287-7292. Human β-FXIIa was obtained from Molecular Innovations, together with human FXa, human FXIa, human α-thrombin, and human plasma kallikrein. Human cationic trypsin and human plasmin were obtained from Sigma-Aldrich, and recombinant human matriptase was sourced from R&D Systems. Recombinant human urokinase (uPA) and recombinant human tissue plasminogen activator (tPA) were expressed in Expi293 cells, as previously described in Li et al. (2019) Chembiochem, 20: 46-50. FXIIa inhibition assays were performed in clear, low-binding 96-well plates using 250 μL (final volume) of assay buffer (0.1 M Tris-HCl pH 8.0, 0.1 M NaCl, 10 mM CaCl2 and 0.005% Triton X-100). Inhibitors were serially diluted and incubated with 10 nM FXIIa at room temperature to reach equilibrium. After adding 100 μM Ac-QRFR-pNA substrate (KM=162 μM), enzymatic activity was measured by monitoring release of the pNA moiety using a TECAN infinite M1000 Pro plate reader (A=405 nm, reading interval, 10 s; assay time course, 7 min). Assays were conducted in three times in duplicate. Substrate kinetic constants (Michaelis-Menten) and inhibition constants (Morrison K) were determined by non-linear regression using Prism 7 (GraphPad). Selectivity assays with off-target proteases were performed in a similar way, except that different concentrations of enzyme and substrate were used, as indicated in Table 16. For assays using a fluorescent substrate (peptide-4-methylcoumaryl-7-amide, MCA), black low-binding 96-well plates were used and activity was measured using a TECAN infinite M1000 pro plate reader (λex 360 nm, λem 460 nm, reading interval, 30 s; assay time course, 5-30 min).

[2] = tested on: human whole blood; test: Activated clotting time (ACT) in human whole blood; conditions: 10 μM, human whole blood
Procedure: (§2) The anticoagulant activity of cyclic MCoFx7 was determined in human whole blood using two assays: activated clotting time (ACT) and rotational thromboelastometry (ROTEM). In ACT assays, the clotting time (y-axis) was increased in a dose-dependent manner from the control (124 s), reaching 223 s with 20 μM MCoFx7. […] Anticoagulant activity was verified by thromboelastometry (TEM) that was measured after activation of the intrinsic pathway (INTEM) (refer to FIG. 16). […] By comparison, a single concentration of cyclic [A25P]MCoFx7 (10 μM) produced a clotting time of 500 s, similar to cyclic MCoFx7 at 10 μM (469 s).
(§3) Activated clotting time (ACT) was measured in fresh whole blood using celite tubes with the Hemochron 401 coagulation analyzer (Soma Technology, Bloomfield, CT, USA). Whole blood clot formation was recorded by ROTEM® Thromboelastometry (Haemoview Diagnostics, Brisbane, Australia) using INTEM (contact factor-initiated coagulation) and HEPTEM (contact factor-initiated coagulation with heparinase) activating reagents according to the manufacturer's instructions.

[3] = tested on: human whole blood, intrinsic pathway (INTEM); test: Rotational thromboelastometry INTEM in human whole blood; conditions: 10 μM
Procedure: as §2, §3

[4] = biological target: T1, Human β-FXIIa; test: FXIIa competitive inhibition assay, colorimetric substrate Ac-QRFR-pNA; assay type: biochemical
Summary of the method: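 Assays run three times in duplicate at pH 8.0 (Tris-HCl, NaCl, CaCl2, Triton X-100). Rates of pNA or MCA release after enzyme–inhibitor equilibration at room temperature were fitted by non-linear regression to the Morrison equation for Ki.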

[5] = biological target: T2, Human trypsin (Homo sapiens, UniProt P07477); test: Trypsin competitive inhibition assay; assay type: biochemical
T2 construct: purchased Sigma-Aldrich; host or cells: purified from human tissue
Procedure: as §1

[6] = biological target: T3, Human FXa (Homo sapiens, UniProt P00742); test: FXa inhibition assay; assay type: biochemical
T3 construct: Human β-FXIIa was obtained from Molecular Innovations, together with human FXa, human FXIa, human α-thrombin, and human plasma kallikrein; purchased Molecular Innovations; host or cells: purified from human plasma
T3 sequence (P00742 235-488 limits assumed): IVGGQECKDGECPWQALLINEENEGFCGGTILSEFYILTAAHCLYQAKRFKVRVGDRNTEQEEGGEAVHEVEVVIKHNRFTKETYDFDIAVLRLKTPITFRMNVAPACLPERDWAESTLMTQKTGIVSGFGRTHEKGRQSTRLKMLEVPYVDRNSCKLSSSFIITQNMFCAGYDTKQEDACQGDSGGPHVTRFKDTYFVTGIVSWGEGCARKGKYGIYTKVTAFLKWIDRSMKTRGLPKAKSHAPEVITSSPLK
T3 sequence (P00742 41-179 partner limits assumed): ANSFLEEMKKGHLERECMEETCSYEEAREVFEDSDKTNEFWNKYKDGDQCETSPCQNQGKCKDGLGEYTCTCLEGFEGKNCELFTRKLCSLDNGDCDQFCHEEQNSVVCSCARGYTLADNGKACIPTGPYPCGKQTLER
Procedure: as §1

[7] = biological target: T4, Human FXIa (Homo sapiens, UniProt P03951); test: FXIa inhibition assay; assay type: biochemical
T4 construct: Human β-FXIIa was obtained from Molecular Innovations, together with human FXa, human FXIa, human α-thrombin, and human plasma kallikrein; purchased Molecular Innovations; host or cells: purified from human plasma
T4 sequence (P03951 388-625 limits assumed): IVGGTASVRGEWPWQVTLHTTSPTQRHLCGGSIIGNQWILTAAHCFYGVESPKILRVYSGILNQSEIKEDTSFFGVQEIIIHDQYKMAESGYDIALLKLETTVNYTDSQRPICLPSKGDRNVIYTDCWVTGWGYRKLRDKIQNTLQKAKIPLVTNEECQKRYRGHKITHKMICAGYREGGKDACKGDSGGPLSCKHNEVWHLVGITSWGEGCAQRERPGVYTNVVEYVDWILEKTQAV
T4 sequence (P03951 19-387 partner limits assumed): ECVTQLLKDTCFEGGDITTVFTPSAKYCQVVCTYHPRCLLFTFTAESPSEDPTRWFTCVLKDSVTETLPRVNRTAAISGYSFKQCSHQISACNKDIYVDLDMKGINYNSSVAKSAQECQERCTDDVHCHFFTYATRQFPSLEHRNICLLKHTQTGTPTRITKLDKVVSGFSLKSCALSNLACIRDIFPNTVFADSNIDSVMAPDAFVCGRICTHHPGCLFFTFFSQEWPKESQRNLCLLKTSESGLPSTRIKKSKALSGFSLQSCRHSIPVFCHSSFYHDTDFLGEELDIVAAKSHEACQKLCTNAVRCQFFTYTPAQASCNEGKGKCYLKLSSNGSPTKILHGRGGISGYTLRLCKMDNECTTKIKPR
Procedure: as §1

[8] = biological target: T5, Human thrombin (Homo sapiens, UniProt P00734); test: Thrombin inhibition assay; assay type: biochemical
T5 construct: Human β-FXIIa was obtained from Molecular Innovations, together with human FXa, human FXIa, human α-thrombin, and human plasma kallikrein; purchased Molecular Innovations; host or cells: purified from human plasma
Procedure: as §1

[9] = biological target: T6, Human plasma kallikrein (Homo sapiens, UniProt P03952); test: Plasma kallikrein inhibition assay; assay type: biochemical
T6 construct: Human β-FXIIa was obtained from Molecular Innovations, together with human FXa, human FXIa, human α-thrombin, and human plasma kallikrein; purchased Molecular Innovations; host or cells: purified from human plasma
T6 sequence (P03952 391-638 limits assumed): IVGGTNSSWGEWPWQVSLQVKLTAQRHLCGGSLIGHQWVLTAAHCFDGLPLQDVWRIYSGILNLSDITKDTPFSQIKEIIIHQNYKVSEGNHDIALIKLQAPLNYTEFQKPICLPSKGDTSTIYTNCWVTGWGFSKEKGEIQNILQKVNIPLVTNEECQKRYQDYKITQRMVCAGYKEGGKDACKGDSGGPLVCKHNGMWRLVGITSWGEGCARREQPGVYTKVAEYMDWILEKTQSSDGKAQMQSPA
T6 sequence (P03952 20-390 partner limits assumed): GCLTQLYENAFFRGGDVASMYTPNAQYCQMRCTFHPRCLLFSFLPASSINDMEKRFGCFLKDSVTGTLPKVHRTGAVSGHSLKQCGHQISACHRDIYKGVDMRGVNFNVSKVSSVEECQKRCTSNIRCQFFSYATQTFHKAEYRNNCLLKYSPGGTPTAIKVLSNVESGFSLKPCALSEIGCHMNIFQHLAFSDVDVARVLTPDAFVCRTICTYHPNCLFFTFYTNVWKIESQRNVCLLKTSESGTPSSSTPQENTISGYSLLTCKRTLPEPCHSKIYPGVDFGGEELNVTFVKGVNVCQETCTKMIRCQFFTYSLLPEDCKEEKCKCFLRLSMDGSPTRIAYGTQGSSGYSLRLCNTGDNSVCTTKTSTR
Procedure: as §1

[10] = biological target: T7, Human plasmin (Homo sapiens, UniProt P00747); test: Plasmin inhibition assay; assay type: biochemical
T7 construct: Human cationic trypsin and human plasmin were obtained from Sigma-Aldrich, and recombinant human matriptase was sourced from R&D Systems; purchased Sigma-Aldrich; host or cells: purified from human plasma
T7 sequence (P00747 581-810 limits assumed): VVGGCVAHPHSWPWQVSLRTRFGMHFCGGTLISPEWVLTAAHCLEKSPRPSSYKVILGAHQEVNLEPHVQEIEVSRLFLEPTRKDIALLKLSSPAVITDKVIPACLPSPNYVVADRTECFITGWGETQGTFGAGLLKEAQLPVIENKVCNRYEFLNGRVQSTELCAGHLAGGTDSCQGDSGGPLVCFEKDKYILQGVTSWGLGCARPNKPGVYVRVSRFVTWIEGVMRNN
T7 sequence (P00747 97-580 partner limits assumed): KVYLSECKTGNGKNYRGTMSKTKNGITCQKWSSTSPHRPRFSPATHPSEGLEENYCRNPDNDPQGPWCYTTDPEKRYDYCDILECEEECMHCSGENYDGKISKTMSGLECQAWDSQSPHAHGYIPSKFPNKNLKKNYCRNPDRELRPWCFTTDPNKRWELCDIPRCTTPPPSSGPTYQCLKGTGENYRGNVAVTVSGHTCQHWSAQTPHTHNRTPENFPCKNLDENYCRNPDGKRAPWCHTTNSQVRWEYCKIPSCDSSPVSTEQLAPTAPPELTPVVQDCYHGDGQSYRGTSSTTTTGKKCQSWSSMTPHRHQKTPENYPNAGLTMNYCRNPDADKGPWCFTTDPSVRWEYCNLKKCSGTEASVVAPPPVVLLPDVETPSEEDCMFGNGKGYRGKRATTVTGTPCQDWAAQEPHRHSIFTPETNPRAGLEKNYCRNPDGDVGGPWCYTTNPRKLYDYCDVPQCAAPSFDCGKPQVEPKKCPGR
Procedure: as §1

[11] = biological target: T8, Rec. human uPA (Homo sapiens, UniProt P00749); test: uPA inhibition assay; assay type: biochemical
T8 construct: made in house; host or cells: Expi293 cells
Procedure: as §1

[12] = biological target: T9, Rec. human tPA (Homo sapiens, UniProt P00750); test: tPA inhibition assay; assay type: biochemical
T9 construct: made in house; host or cells: Expi293 cells
T9 sequence (P00750 36-562): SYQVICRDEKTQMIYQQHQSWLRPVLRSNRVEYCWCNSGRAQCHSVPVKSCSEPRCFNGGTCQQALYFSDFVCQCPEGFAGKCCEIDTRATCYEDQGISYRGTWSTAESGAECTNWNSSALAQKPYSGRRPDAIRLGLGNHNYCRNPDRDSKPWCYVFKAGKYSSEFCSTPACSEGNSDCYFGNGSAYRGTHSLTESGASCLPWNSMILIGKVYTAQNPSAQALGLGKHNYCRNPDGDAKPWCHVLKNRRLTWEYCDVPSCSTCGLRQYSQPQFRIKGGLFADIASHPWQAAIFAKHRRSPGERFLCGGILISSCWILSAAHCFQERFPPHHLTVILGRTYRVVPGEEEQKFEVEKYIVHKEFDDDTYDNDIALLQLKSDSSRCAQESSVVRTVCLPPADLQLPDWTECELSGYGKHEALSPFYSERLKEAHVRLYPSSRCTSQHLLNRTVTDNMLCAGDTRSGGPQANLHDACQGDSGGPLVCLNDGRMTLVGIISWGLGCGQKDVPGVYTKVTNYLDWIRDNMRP
Procedure: as §1

[13] = biological target: T10, Rec. human matriptase (Homo sapiens, UniProt Q9Y5Y6); test: Matriptase inhibition assay; assay type: biochemical
T10 construct: purchased R&D Systems
T10 sequence (Q9Y5Y6 615-855 limits assumed): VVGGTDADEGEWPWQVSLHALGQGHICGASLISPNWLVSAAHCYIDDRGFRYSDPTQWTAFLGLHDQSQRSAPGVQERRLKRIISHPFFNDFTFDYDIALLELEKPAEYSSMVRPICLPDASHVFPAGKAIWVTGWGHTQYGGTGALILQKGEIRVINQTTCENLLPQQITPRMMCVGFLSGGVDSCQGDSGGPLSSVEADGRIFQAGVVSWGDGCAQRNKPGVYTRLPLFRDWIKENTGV
Procedure: as §1

[14] = tested on: clotting via the intrinsic pathway; test: Activated partial thromboplastin time (aPTT) assay in human plasma; assay type: biochemical
Source text: (§4) Citrated, platelet-poor plasma samples from healthy adults were collected, prepared, and stored using previously established collection protocols, such as in Zdenek et al. (2019) Toxicol in Vitro, 58: 97-109.
(§5) Standard coagulation assays were used to determine the effect of the inhibitors on the clotting time of human plasma. Activated partial thromboplastin time (aPTT) uses a Kaolin reagent (clay) to activate the intrinsic/contact pathway of the coagulation cascade, whereas prothrombin time (PT) uses Neoplastine (lyophilized thromboplastin prepared from rabbit cerebral tissue) to activate the extrinsic/tissue-factor pathway of the coagulation cascade. A minor adjustment was made to both tests (addition of 25 μL inhibitor or buffer; refer to Table 17) to accommodate the addition of an inhibitor without changing the total volume (and therefore relative ratios of additives) of the assay. Concentrations of inhibitor are reported as the concentration at the point of incubation in the assay, i.e. not taking into account the addition of the start reagent (calcium for aPTT, or Neoplastine for PT).
(§6) Clotting time (seconds) of plasma was automatically measured using a STA-R Max® analyzer (Stago, Asnieres sur Seine, France). Measurements were conducted using a viscosity-based (mechanical) detection system, whereby opposing magnets oscillate a small metal spherical pellet inside the test cuvette (250 μL total volume) until a clot is formed. Dilution of the inhibitor in Owren-Koller (OK) buffer for dose-response curves was performed automatically by the machine. Reagents were kept at 15-19° C. in the machine during experimentation and otherwise stored at 4° C. All tests were performed in triplicate.

[15] = tested on: clotting via the extrinsic pathway; test: Prothrombin time (PT) assay in human plasma; assay type: biochemical; conditions: at 10 μM
Source text: as §4, §5, §6

[16] = Stability in human serum; conditions: human serum, 37° C., up to 24 h
Procedure: Briefly, peptides were incubated at a final concentration of 30 μM in human serum (human male AB serum, Sigma-Aldrich) at 37° C. for 0, 1, 12 and 24 h. The reaction was stopped at designated times, with the serum proteins being denatured by addition of two volumes of acetonitrile (v/v). The samples were then spun at 17,000 g for 10 min and the amount of peptide in the supernatant was quantified using analytical HPLC. The percentage of peptide remaining at 1, 12 and 24 h was calculated using the area of the serum-treated peptide peak from 0 h as 100%.

Work on CC[C@H](C)[C@@H]1NC(=O)CNC(=O)CNC(=O)[C@H](CC(=O)O)NC(=O)[C@H](CO)NC(=O)CNC(=O)[C@H](CO)NC(=O)CNC(=O)[C@@H]2CSSC[C@@H]3NC(=O)[C@H](CC(=O)O)NC(=O)[C@H](CO)NC(=O)[C@H](CC(=O)O)NC(=O)[C@H](CCCNC(=N)N)NC(=O)[C@H](CCCNC(=N)N)NC(=O)[C@@H]4CSSC[C@H](NC(=O)[C@H]([C@@H](C)CC)NC(=O)[C@H](CSSC[C@H](NC1=O)C(=O)N1CCC[C@H]1C(=O)N[C@@H](CCCNC(=N)N)C(=O)N[C@@H]([C@@H](C)CC)C(=O)NCC(=O)N[C@@H](CCCNC(=N)N)C(=O)N[C@@H](CC(C)C)C(=O)N4)NC(=O)[C@H](C)NC(=O)CNC(=O)[C@@H]1CCCN1C3=O)C(=O)N[C@@H](CCCNC(=N)N)C(=O)N1CCC[C@H]1C(=O)N[C@@H]([C@@H](C)O)C(=O)N[C@@H](CCCNC(=N)N)C(=O)N[C@@H](Cc1ccccc1)C(=O)N2 [Cyclic [A25P]MCoFx7] (cyclo(ACICRPTRFCGSGSDGGICPRIGRLCRRDSDCPG); disulfide 2-19, 4-26, 10-32) yielded a Ki [1] of 0.093 ± 0.005 nM, an ACT clotting time [2] of 186 s and an INTEM clotting time [3] of 500 s.

With CC[C@H](C)[C@@H]1NC(=O)CNC(=O)CNC(=O)[C@H](CC(=O)O)NC(=O)[C@H](CO)NC(=O)CNC(=O)[C@H](CO)NC(=O)CNC(=O)[C@@H]2CSSC[C@@H]3NC(=O)[C@H](CC(=O)O)NC(=O)[C@H](CO)NC(=O)[C@H](CC(=O)O)NC(=O)[C@H](CCCNC(=N)N)NC(=O)[C@H](CCCNC(=N)N)NC(=O)[C@@H]4CSSC[C@H](NC(=O)[C@H]([C@@H](C)CC)NC(=O)[C@H](CSSC[C@H](NC1=O)C(=O)N1CCC[C@H]1C(=O)N[C@@H](CCCNC(=N)N)C(=O)N[C@@H]([C@@H](C)CC)C(=O)NCC(=O)N[C@@H](CCCNC(=N)N)C(=O)N[C@@H](CC(C)C)C(=O)N4)NC(=O)[C@H](C)NC(=O)CNC(=O)[C@@H]1CCCN1C3=O)C(=O)N[C@@H](CCCNC(=N)N)C(=O)NCC(=O)N[C@@H](CC(N)=O)C(=O)NCC(=O)N[C@@H](Cc1ccc(O)cc1)C(=O)N2 [cMCoTI-fxL1] (cyclo(ACICRGNGYCGSGSDGGICPRIGRLCRRDSDCPG); disulfide 2-19, 4-26, 10-32) the Ki [4] was 0.69 nM, the Ki [5] was 996 nM and the IC50 [6] was > 5000 nM. For the same compound, the inhibition at 5 µM ([6]; read-out: percent inhibition FXa) was 0%, the IC50 [7] was > 5000 nM and the inhibition at 5 µM ([7]; read-out: percent inhibition FXIa) was 1%. For the same compound, the IC50 [8] was > 5000 nM, the inhibition at 5 µM ([8]; read-out: percent inhibition Thrombin) was 1% and the IC50 [9] was > 5000 nM. The inhibition at 5 µM ([9]; read-out: percent inhibition Plasma kallikrein) was 0%, the IC50 [10] was > 5000 nM and the inhibition at 5 µM ([10]; read-out: percent inhibition Plasmin) was 19%. The IC50 [11] was > 5000 nM, the inhibition at 5 µM ([11]; read-out: percent inhibition uPA) was 0% and the IC50 [12] was > 5000 nM. The inhibition at 5 µM ([12]; read-out: percent inhibition tPA) was 1%, the Ki [13] was 2210 nM and the “EC2× (concentration required to double the clotting time)” value [14] was 500 nM. For the same compound, the “clotting time compared to control, PT assay” value [15] was “No significant differences in clotting time compared to control assays” and the “resistance to serum proteases (in words)” value [16] was “highly resistant to serum proteases”.
